Our source for the MIC and MIC90 values is ChEMBL document CHEMBL1128849, “Synthesis and antibacterial activity of men 10700, a new penem antibiotic” (1995).

Usually MIC stands for the lowest concentration found to suppress growth. A low value points to a more susceptible organism.

Converted amounts (≈) assume the structure as drawn.

The test system of assay [1] is Pseudomonas aeruginosa. Briefly: In vitro antibacterial activity against Pseudomonas aeruginosa VR5. It is filed as functional.
Assay [2] deals with Escherichia coli. Briefly: In vitro antibacterial activity against Escherichia. coli TEM1. It is filed as functional.
Assay [3] relates to Staphylococcus aureus. In words: In vitro antibacterial activity against Staphylococcus aureus MR13. It is filed as functional.
The subject of assay [4] is Pseudomonas aeruginosa. Briefly: In vitro antibacterial activity against Pseudomonas aeruginosa G242. It is filed as functional.
Assay [5] relates to Escherichia coli. Briefly: In vitro antibacterial activity against Escherichia. coli SHV. It is filed as functional.
Assay [6] deals with Staphylococcus aureus. Briefly: In vitro antibacterial activity against Staphylococcus aureus ATCC 29213. It is filed as functional.
For assay [7], the system named is Staphylococcus aureus. Briefly: In vitro antibacterial activity against Staphylococcus aureus MR09. It is filed as functional.
In assay [8] the test system is Escherichia coli. In words: In vitro antibacterial activity against Escherichia. coli L. It is filed as functional.
Assay [9] has as its system Pseudomonas aeruginosa. Briefly: In vitro antibacterial activity against Pseudomonas aeruginosa ATCC 27853. It is filed as functional.
For assay [10], the system named is Escherichia coli. In words: In vitro antibacterial activity against Escherichia. coli ATCC 25922. It is filed as functional.
Assay [11] has as its system Escherichia coli. In words: In vitro antibacterial activity against Escherichia. coli DC2. It is filed as functional.
In assay [12] the test system is Staphylococcus aureus. Briefly: In vitro antibacterial activity against Staphylococcus aureus ATCC 25923. It is filed as functional.
Assay [13] concerns Escherichia coli. In words: In vitro antibacterial activity against Escherichia. coli TEM2. It is filed as functional.
Assay [14] relates to Enterococcus faecalis. In words: In vitro antibacterial activity against Enterococcus faecalis ATCC 29212. It is filed as functional.
The test system of assay [15] is Streptococcus pyogenes. In words: In vitro antibacterial activity against Streptococcus pyogenes A. It is filed as functional.
Assay [16] deals with Acinetobacter calcoaceticus subsp. anitratus. In words: In vitro antibacterial activity against Acinetobacter anitratus. It is filed as functional.
Assay [17] concerns Providencia rettgeri. Briefly: In vitro antibacterial activity against Providencia rettgerii. It is filed as functional.
Assay [18] deals with Moraxella catarrhalis. Briefly: In vitro antibacterial activity against Branhamella catarrhalis. It is filed as functional.
The test system of assay [19] is Listeria monocytogenes. Briefly: In vitro antibacterial activity against Listeria monocytogenes. It is filed as functional.
Assay [20] relates to Aeromonas sp. Briefly: In vitro antibacterial activity against Aeromonas species. It is filed as functional.
Assay [21] concerns Klebsiella aerogenes. In words: In vitro antibacterial activity against Enterobacter aerogenes. It is filed as functional.
Assay [22] relates to Bacteroides fragilis. Briefly: In vitro antibacterial activity against Bacteroides fragilis. It is filed as functional.
For assay [23], the system named is Streptococcus agalactiae. Briefly: In vitro antibacterial activity against Streptococcus agalactiae B. It is filed as functional.
Assay [24] relates to Staphylococcus aureus. In words: In vitro antibacterial activity against Staphylococcus aureus MR. It is filed as functional.
Assay [25] has as its system Enterococcus faecalis. Briefly: In vitro antibacterial activity against Enterococcus faecalis. It is filed as functional.
The subject of assay [26] is Klebsiella pneumoniae. Briefly: In vitro antibacterial activity against Klebsiella pneumoniae. It is filed as functional.
The test system of assay [27] is Morganella morganii. Briefly: In vitro antibacterial activity against Morganella morganii. It is filed as functional.
The test system of assay [28] is Staphylococcus aureus. Briefly: In vitro antibacterial activity against Staphylococcus aureus MS. It is filed as functional.
Assay [29] has as its system Proteus vulgaris. In words: In vitro antibacterial activity against Proteus vulgaris. It is filed as functional.
The subject of assay [30] is Streptococcus pneumoniae. Briefly: In vitro antibacterial activity against Streptococcus pneumoniae. It is filed as functional.
Assay [31] concerns Clostridium perfringens. In words: In vitro antibacterial activity against Clostridium perfringens. It is filed as functional.
Assay [32] deals with Escherichia coli. In words: In vitro antibacterial activity against Escherichia coli. It is filed as functional.
Assay [33] concerns Haemophilus influenzae. Briefly: In vitro antibacterial activity against Haemophilus influenzae. It is filed as functional.
Assay [34] has as its system Staphylococcus epidermidis. In words: In vitro antibacterial activity against Staphylococcus epidermidis. It is filed as functional.
Assay [35] concerns Stenotrophomonas maltophilia. In words: In vitro antibacterial activity against Xanthomonas maltophilia. It is filed as functional.
Assay [36] deals with Yersinia sp. Briefly: In vitro antibacterial activity against Yersinia species. It is filed as functional, yersinia spp. The following applies: Yersinia sp. (in: enterobacteria).
Assay [37] has as its system Pseudomonas aeruginosa. In words: In vitro antibacterial activity against Pseudomonas aeruginosa. It is filed as functional.
Assay [38] deals with Proteus mirabilis. In words: In vitro antibacterial activity against Proteus mirabilis. It is filed as functional.
Assay [39] relates to Providencia stuartii. In words: In vitro antibacterial activity against Providencia stuartii. It is filed as functional.
Assay [40] deals with Enterococcus faecium. Briefly: In vitro antibacterial activity against Enterococcus faecium. It is filed as functional.
In assay [41] the test system is Citrobacter freundii. In words: In vitro antibacterial activity against Citrobacter freundii. It is filed as functional.

Consider `CCCCOC(=O)CN(C)CC1=C(C(=O)O)N2C(=O)[C@H]([C@@H](C)O)C2S1` (some centres not stated), for which the MIC is > 32 µg/mL in assay [1]; > 32 µg/mL in assay [2]; 0.5 µg/mL (≈ 1.34 µM) in assay [3]; > 32 µg/mL in assay [4]; > 32 µg/mL in assay [5]; 0.5 µg/mL (≈ 1.34 µM) in assay [6]. The MIC in assay [7] was 16 µg/mL (≈ 43 µM); in [8] it was > 32 µg/mL; in [9] it was > 32 µg/mL; in assay [10], 32 µg/mL (≈ 85.9 µM); in assay [11], 1 µg/mL (≈ 2.68 µM); in assay [12], 0.25 µg/mL (≈ 0.671 µM). The figures for the MIC in assay [13] and in assay [14] were > 32 µg/mL and 8 µg/mL (≈ 21.5 µM), respectively.

With `C[C@@H](O)[C@H]1C(=O)N2C(C(=O)O)=C(CSC(=S)N(C)CC(N)=O)SC12` (some centres not stated), the MIC in assay [1] came out at 4 µg/mL (≈ 10.2 µM); in assay [2], 8 µg/mL (≈ 20.4 µM); in [3], 0.03 µg/mL (≈ 0.0766 µM); in assay [4], 8 µg/mL (≈ 20.4 µM); in assay [5], 16 µg/mL (≈ 40.9 µM); in assay [6] it was 0.12 µg/mL (≈ 0.307 µM). Moreover, the MIC is 2 µg/mL (≈ 5.11 µM) in assay [7]; 16 µg/mL (≈ 40.9 µM) in assay [8]; > 32 µg/mL in assay [9]; 8 µg/mL (≈ 20.4 µM) in assay [10]; 0.5 µg/mL (≈ 1.28 µM) in assay [11]; 0.12 µg/mL (≈ 0.307 µM) in [12]. Also, the MIC in assay [13] and in assay [14] was 8 µg/mL (≈ 20.4 µM) in each case.

Consider `CC1(C)S[C@@H]2[C@H](NC(=O)[C@H](N)c3ccccc3)C(=O)N2[C@H]1C(=O)O.CC1(C)[C@H](C(=O)O)N2C(=O)C[C@H]2S1(=O)=O`, for which the MIC90 was 0.03 µg/mL in assay [15]; 32 µg/mL in assay [16]; 32 µg/mL in assay [17]; 0.5 µg/mL in assay [18]; 0.5 µg/mL in assay [19]; > 32 µg/mL in assay [20]. For the same compound, the MIC90 was > 64 µg/mL in assay [21]; 4 µg/mL in assay [22]; 0.06 µg/mL in [23]; 32 µg/mL in [24]; 2 µg/mL in assay [25]; 16 µg/mL in [26]. For the same compound, the MIC90 stood at 16 µg/mL in assay [27]; 1 µg/mL in [28]; 8 µg/mL in [29]; 0.03 µg/mL in [30]; 0.12 µg/mL in [31]; 8 µg/mL in assay [32]. Also, the MIC90 is 1 µg/mL in assay [33]; 4 µg/mL in assay [34]; > 64 µg/mL in assay [35]; 32 µg/mL in assay [36]; > 64 µg/mL in assay [37]; 32 µg/mL in assay [38]. The values for the MIC90 in [39], in assay [40] and in assay [41] were 64 µg/mL, > 64 µg/mL and > 64 µg/mL, respectively. Further, the MIC is 0.12 µg/mL in assay [1]; > 32 µg/mL in [2]; 0.12 µg/mL in [3]; > 32 µg/mL in assay [4]; > 32 µg/mL in [5]; 0.25 µg/mL in assay [6]. Moreover, the MIC in assay [7] was found to be 4 µg/mL; in assay [8] it was 8 µg/mL; in assay [9] it was 32 µg/mL; in assay [10], 8 µg/mL; in [12], 0.03 µg/mL; in assay [13], 8 µg/mL. This compound gave an MIC in assay [14] of 1 µg/mL.

Take `C[C@@H](O)[C@H]1C(=O)N2C(C(=O)O)=C(CN(C)CC(=O)N(C)C)SC12` (some centres not stated): the minimal inhibitory concentration (MIC) is 4 µg/mL (≈ 11.6 µM) in assay [1]; 1 µg/mL (≈ 2.91 µM) in assay [2]; 0.25 µg/mL (≈ 0.728 µM) in assay [3]; 0.5 µg/mL (≈ 1.46 µM) in assay [4]; 1 µg/mL (≈ 2.91 µM) in assay [5]; 0.25 µg/mL (≈ 0.728 µM) in assay [6]. The MIC in [7] is 4 µg/mL (≈ 11.6 µM); in [8] it was 0.5 µg/mL (≈ 1.46 µM); in [9] it was > 32 µg/mL; in assay [10], 0.5 µg/mL (≈ 1.46 µM); in [11], 1 µg/mL (≈ 2.91 µM); in assay [12] it was 0.12 µg/mL (≈ 0.349 µM). The values for the minimal inhibitory concentration (MIC) in assay [13] and in [14] were 1 µg/mL (≈ 2.91 µM) and 8 µg/mL (≈ 23.3 µM), respectively.
